Results: patent publication US11779559B2, “Compositions for treating fungal and bacterial biofilms and methods of using the same” (priority 2017, dated 2023)
Like-named read-outs stand apart in the source and are kept apart here.

How the values were obtained:
[1] = system: fungal and bacterial biofilms; assay: Biofilm assays (sustained inhibition and disruption), fungal and bacterial biofilms; type: cell-based; conditions: for Effect on bacterial or fungal biofilms in both assays: sustained inhibition and disruption
Protocol: (§1) Two types of biofilm assays were performed: a sustained inhibition assay and a disruption assay. The sustained inhibition assay assesses the compound's ability to prevent biofilm development throughout all stages of biofilm formation, while the disruption assay assesses the compound's ability to break up an existing mature biofilm. These assays are described in detail in the following article: Lohse, M. B., Gulati, M., Valle Arevalo, A., Fishburn, A., Johnson, A. D., and Nobile, C. J. (2017) Assessment and optimizations of Candida albicans in vitro biofilm assays. Antimicrobial Agents and Chemotherapy 61: e02749-16.
(§2) For fungal biofilm assays, all solutions were prepared in RPMI 1640 medium. All bacterial biofilm solutions were prepared in Trypic Soy Broth (TSB), supplemented with 1% glucose (henceforth referred to as TSB-G). All subsequent procedures were performed in a manner that maintained sterility. A solution of each amino acid to be tested was prepared in weight to volume concentrations ranging from 0.1-5.0%. Amino acids were also tested in combinations. Compound solutions were homogenized with gentle agitation in the dark (4° C., 24 hours) before use.
(§3) All biofilm assays were performed using 384-well non-tissue culture treated polystyrene plates. The fungal species tested are as follows: Candida albicans, Candida guilhermondii, Candida parapsilosis, Candida glabrata, Candida tropicalis, Candida dubliniensis, and Candida auris. The bacterial species tested are as follows: Staphylococcus aureus (standard wild type and methicillin-resistant strain USA300), Escherichia coli, Pseudomonas aeruginosa and Staphylococcus epidermidis.
Fungal strains were streaked on Yeast Peptone Dextrose (YPD) agar plates and incubated at 30° C. for 48 hours. A single colony from each strain to be tested was inoculated into YPD broth and grown for 12 hours, at 30° C., shaking at 225 rpm. For the fungal biofilm inhibition assay, 1 μl of saturated overnight cell culture was added to either 80 μL of RPMI-1640 or RPMI-1640 supplemented with the amino acid compound solution to be tested, in a 384-well plate. The cells were allowed to adhere to the plate for 90 minutes at 37° C. with shaking (350 rpm). Loosely bound cells were washed once with phosphate buffered saline (PBS) and 80 ul of RPMI-1640, or RPMI-1640 supplemented with the amino acid compound solution was added to the plate. The plate was further incubated for 24 hours at 37° C. with shaking (350 rpm). Media was carefully aspirated and the biofilm was measured by optical density at 600 nm. Twelve replicates were performed for each tested condition and the reported values are normalized to the control (RPMI-1640 media only). For the fungal biofilm disruption assays, 80 μL of RPMI-1640 was added to the plate, along with 1 μL of overnight cell culture. The cells were allowed to adhere to the plate for 90 minutes at 37° C. with shaking (350 rpm). Loosely bound cells were washed once with PBS and 80 μL of RPMI-1640 was added to the plate. The plate was further incubated for 24 hours at 37° C. with shaking (350 rpm). Media was carefully aspirated from the mature biofilm and 80 μL of RPMI-1640, or RPMI-1640 supplemented with the amino acid compound solution to be tested, was gently added to the plate. The plate was further incubated for 24 hours at 37° C. with shaking (350 rpm). Media was carefully aspirated and the biofilm was measured by optical density at 600 nm. Twelve replicates were performed for each tested condition and the reported values are normalized to the control (RPMI-1640 media only).
Bacterial strains were streaked on Blood Agar plates (5% sheep blood in Tryptic Soy Agar) and incubated at 37° C. for 24 hours. A single colony from each strain to be tested was inoculated in a TSB broth and grown for 12 hours, at 37° C. with shaking (225 rpm).

[2] = system: S. aureus; assay: Sustained inhibition biofilm assay, bacterial; type: cell-based, Staphylococcus aureus; conditions: for activation at 1 %: Staphylococcus aureus, read-out: Promote B Biofilm
Protocol: (§4) Two types of biofilm assays were performed: a sustained inhibition assay and a disruption assay. The sustained inhibition assay assesses the compound's ability to prevent biofilm development throughout all stages of biofilm formation, while the disruption assay assesses the compound's ability to break up an existing mature biofilm. These assays are described in detail in the following article: Lohse, M. B., Gulati, M., Valle Arevalo, A., Fishburn, A., Johnson, A. D., and Nobile, C. […] Antimicrobial Agents and Chemotherapy 61: e02749-16.
(§5) All bacterial biofilm solutions were prepared in Trypic Soy Broth (TSB), supplemented with 1% glucose (henceforth referred to as TSB-G). All subsequent procedures were performed in a manner that maintained sterility. A solution of each amino acid to be tested was prepared in weight to volume concentrations ranging from 0.1-5.0%. Amino acids were also tested in combinations. Compound solutions were homogenized with gentle agitation in the dark (4° C., 24 hours) before use.
(§6) Bacterial strains were streaked on Blood Agar plates (5% sheep blood in Tryptic Soy Agar) and incubated at 37° C. for 24 hours. A single colony from each strain to be tested was inoculated in a TSB broth and grown for 12 hours, at 37° C. with shaking (225 rpm). For the bacterial biofilm inhibition assays, 1 μL of saturated overnight cell culture was added to either 80 μL of TSB-G, or TSB-G supplemented with the amino acid compound solution to be tested, in a 384-well plate. The cells were allowed to adhere to the plate for 60 minutes at 37° C. without shaking. The media was carefully aspirated and 80 μL of TSB-G, or TSB-G supplemented with the amino acid compound solution was added to the plate. The plate was further incubated for 24 hours at 37° C. without shaking. Media was carefully aspirated and the biofilm was measured by optical density at 600 nm. Eight or twelve replicates were performed for each tested condition and the reported values are normalized to the control (TSB-G media only). For the bacterial biofilm disruption assays, 80 μL of TSB-G was added to the plate, along with 1 μL of overnight cell culture. The cells were allowed to adhere to the plate for 60 minutes at 37° C. with no shaking. The media was carefully aspirated and 80 μL of TSB-G was added to the plate. The plate was further incubated for 24 hours at 37° C. with no shaking. Media was carefully aspirated from the mature biofilm and 80 μL of TSB-G, or TSB-G supplemented with the amino acid to be tested, was gently added to the plate. The plate was further incubated for 24 hours at 37° C. without shaking. Media was aspirated and the biofilm was measured by optical density at 600 nm. Twelve replicates were performed for each tested condition and the reported values are normalized to the control (TSB-G media only).

[3] = system: S. aureus; assay: Disruption biofilm assay, bacterial; type: cell-based, Staphylococcus aureus; conditions: for inhibition at 1 % / activation at 1 %: Staphylococcus aureus; for inhibition at 1 %: 24 h, read-out: Reduce B Biofilm; for activation at 1 %: read-out: Promote B Biofilm
Protocol: as §4, §5, §6

[4] = system: bacterial biofilms; assay: Biofilm assays (sustained inhibition and/or disruption), bacterial biofilms; type: cell-based; conditions: in at least one of the two biofilm assays; for Anti-biofilm effect against bacterial biofilms (reduction): administered individually at about 0.1 to about 5.0% weight to volume
Protocol: as §1, §2, §3, §6

[5] = sustained inhibition assay, S. aureus, 1% amino acid (unless specifically noted), p≤0.001
[6] = disruption assay, S. aureus, 1% amino acid (unless specifically noted), p≤0.001

Compound | activation at 1 % [3, 6] | Effect on bacterial biofilm growth [4] | activation at 1 % [2, 5] | also measured
Cn1cnc(C[C@H](N)C(=O)O)c1 [1-Methylhistidine, 1-methyl-L-histidine] |  |  |  | Effect on bacterial or fungal biofilms in both assays [1]: neutral
NC(CCCC(=O)O)C(=O)O (stereo not shown) [2 Aminoadipic Acid, 2-aminoadipic acid] |  |  |  | Reduce B Biofilm [2, 5]: ● (a single dot [ie. •] signifies minor effect (from about 10 to about 30% change)); inhibition at 1 % [3, 6]: 10 to 30%; Anti-biofilm effect against bacterial biofilms (reduction) [4]: less than twofold
CCC(N)C(=O)O (stereo not shown) [2 Aminobutyric Acid, 2-aminobutyric acid] |  |  |  | Effect on bacterial or fungal biofilms in both assays [1]: neutral
C[C@H](N)C(=O)O [Alanine, L-alanine] | 10 to 30% | support (improve) bacterial biofilm growth |  | 
N=C(N)NCCC[C@H](N)C(=O)O [Arginine, L-arginine] |  | support (improve) bacterial biofilm growth |  | activation at 1 % [2]: 10 to 30%; activation at 1 % [3]: 10 to 30%
NC(=O)C[C@H](N)C(=O)O [Asparagine, L-asparagine] |  | support (improve) bacterial biofilm growth | 10 to 30% | 
NCCC(=O)O [Beta-Alanine, Beta-alanine] |  |  |  | Reduce B Biofilm [2, 5]: ● (a single dot [ie. •] signifies minor effect (from about 10 to about 30% change)); Anti-biofilm effect against bacterial biofilms (reduction) [4]: less than twofold
NC(=O)NCCC[C@H](N)C(=O)O [Citrulline, L-citrulline] |  | support (improve) bacterial biofilm growth |  | activation at 1 % [2]: 10 to 30%; activation at 1 % [3]: 10 to 30%
N[C@@H](CCSC[C@H](N)C(=O)O)C(=O)O [Cystathionine (0.2%), L-cystathionine] |  |  |  | inhibition at 1 % [3, 6]: 10 to 30%
NCC(=O)O [Glycine, L-glycine] | 10 to 30% | support (improve) bacterial biofilm growth | 10 to 30% | 
N[C@@H](Cc1c[nH]cn1)C(=O)O [Histidine, L-histidine] |  |  |  | Effect on bacterial or fungal biofilms in both assays [1]: neutral
O=C(O)[C@@H]1C[C@@H](O)CN1 [Hydroxyproline, Trans-4-hydroxy-L-proline] |  |  |  | Reduce B Biofilm [2, 5]: ● (a single dot [ie. •] signifies minor effect (from about 10 to about 30% change)); inhibition at 1 % [3]: 10 to 30%; Anti-biofilm effect against bacterial biofilms (reduction) [4]: less than twofold
CC[C@H](C)[C@H](N)C(=O)O [Isoleucine, L-isoleucine] | 10 to 30% | support (improve) bacterial biofilm growth |  | 
CC(C)C[C@H](N)C(=O)O [Leucine, L-leucine] | 10 to 30% | support (improve) bacterial biofilm growth | 10 to 30% | 
NCCCC[C@H](N)C(=O)O [Lysine, L-lysine] |  | support (improve) bacterial biofilm growth |  | activation at 1 % [2]: 10 to 30%; activation at 1 % [3]: 10 to 30%
CSCC[C@H](N)C(=O)O [Methionine, L-methionine] |  | support (improve) bacterial biofilm growth | 10 to 30% | 
NCCC[C@H](N)C(=O)O [Ornithine, L-ornithine] | 10 to 30% | support (improve) bacterial biofilm growth | 10 to 30% | 
N[C@@H](Cc1ccccc1)C(=O)O [Phenylalanine, L-phenylalanine] | 10 to 30% | support (improve) bacterial biofilm growth | 10 to 30% | 
NCCOP(=O)(O)O [Phosphoethanolamine, 0-phosphoethanolamine] |  |  |  | Reduce B Biofilm [2, 5]: ● (a single dot [ie. •] signifies minor effect (from about 10 to about 30% change)); Reduce B Biofilm [3, 6]: ● (a single dot [ie. •] signifies minor effect (from about 10 to about 30% change)); Anti-biofilm effect against bacterial biofilms (reduction) [4]: less than twofold
N[C@@H](CO)C(=O)O [Serine, L-serine] | 10 to 30% | support (improve) bacterial biofilm growth | 10 to 30% | 
NCCS(=O)(=O)O [Taurine, L-taurine] | 10 to 30% | support (improve) bacterial biofilm growth | 10 to 30% | 
C[C@@H](O)[C@H](N)C(=O)O [Threonine, L-threonine] |  | support (improve) bacterial biofilm growth | 10 to 30% | 
N[C@@H](Cc1c[nH]c2ccccc12)C(=O)O [Tryptophan, L-tryptophan] |  |  |  | Effect on bacterial or fungal biofilms in both assays [1]: neutral
N[C@@H](Cc1ccc(O)cc1)C(=O)O [Tyrosine, L-tyrosine] |  |  |  | Effect on biofilms ([1]; single component on its own): neutral effect on biofilms; Effect on bacterial or fungal biofilms in both assays [1]: neutral
